Source: patent publication US12473296B2, “Perk inhibiting compounds” (HiberCell, Inc., priority 2019, dated 2025)

Columns and labels:
PERK = PERK (Homo sapiens (Human), UniProt Q9NZJ5); assay: PERK cellular assay (TR-FRET, HEK293-EGFP-eIF2α cells, tunicamycin-induced ER stress); type: cell-based; conditions: tunicamycin 2 hours, read-out: Cellular IC50 (μM) (EIF2a)
Outline: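 Cells pre-incubated with inhibitor 30 min at 37 °C, then ER stress induced with […] tunicamycin for 2 h. TR-FRET read on lysates; ratio normalized to DMSO control as percent inhibition over a 10-point, 3-fold dilution series; IC50 from 4-parameter logistic fit.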

[1] = molecular target: EIF2AK3 (PERK) catalytic domain (amino acids 536-1116) (Homo sapiens (Human), UniProt Q9NZJ5); assay: PERK in vitro activity assay (isolated), TR-FRET kinase assay; conditions: isolated PERK enzyme, 1.5 μM ATP, GFP-eIF2a substrate; read-out: Biochemical IC50
Sequence of EIF2AK3 (PERK) catalytic domain (amino acids 536-1116) (Q9NZJ5 536-1116): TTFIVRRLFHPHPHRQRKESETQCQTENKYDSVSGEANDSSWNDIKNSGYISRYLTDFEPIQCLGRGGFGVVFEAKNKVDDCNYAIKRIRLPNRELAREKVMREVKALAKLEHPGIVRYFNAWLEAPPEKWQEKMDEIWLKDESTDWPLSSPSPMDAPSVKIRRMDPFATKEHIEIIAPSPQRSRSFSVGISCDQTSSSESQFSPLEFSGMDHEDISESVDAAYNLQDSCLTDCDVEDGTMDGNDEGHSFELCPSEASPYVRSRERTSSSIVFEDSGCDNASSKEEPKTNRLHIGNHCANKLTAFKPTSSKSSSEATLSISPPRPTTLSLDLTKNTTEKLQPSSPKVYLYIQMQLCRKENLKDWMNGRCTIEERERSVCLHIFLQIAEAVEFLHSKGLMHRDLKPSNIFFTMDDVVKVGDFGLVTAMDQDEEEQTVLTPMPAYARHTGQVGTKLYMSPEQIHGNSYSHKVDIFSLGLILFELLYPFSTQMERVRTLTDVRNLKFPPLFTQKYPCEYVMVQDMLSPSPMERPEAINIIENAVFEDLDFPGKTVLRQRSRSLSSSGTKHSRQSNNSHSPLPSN
Outline: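 Human PERK catalytic domain (aa 536-1116) with 100-200 nM GFP-eIF2a in 50 mM HEPES pH 7.5, 10 mM MgCl2, 1.0 mM EGTA, 0.01% Brij-35; enzyme-started reaction run 45 min at room temperature. Stopped with 10 mM EDTA, 2 nM Tb-anti-phospho-eIF2a added for 90 min; IC50 from TR-FRET ratio by 4-parameter logistic fit.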

Sequence of PERK (Q9NZJ5 30-1116): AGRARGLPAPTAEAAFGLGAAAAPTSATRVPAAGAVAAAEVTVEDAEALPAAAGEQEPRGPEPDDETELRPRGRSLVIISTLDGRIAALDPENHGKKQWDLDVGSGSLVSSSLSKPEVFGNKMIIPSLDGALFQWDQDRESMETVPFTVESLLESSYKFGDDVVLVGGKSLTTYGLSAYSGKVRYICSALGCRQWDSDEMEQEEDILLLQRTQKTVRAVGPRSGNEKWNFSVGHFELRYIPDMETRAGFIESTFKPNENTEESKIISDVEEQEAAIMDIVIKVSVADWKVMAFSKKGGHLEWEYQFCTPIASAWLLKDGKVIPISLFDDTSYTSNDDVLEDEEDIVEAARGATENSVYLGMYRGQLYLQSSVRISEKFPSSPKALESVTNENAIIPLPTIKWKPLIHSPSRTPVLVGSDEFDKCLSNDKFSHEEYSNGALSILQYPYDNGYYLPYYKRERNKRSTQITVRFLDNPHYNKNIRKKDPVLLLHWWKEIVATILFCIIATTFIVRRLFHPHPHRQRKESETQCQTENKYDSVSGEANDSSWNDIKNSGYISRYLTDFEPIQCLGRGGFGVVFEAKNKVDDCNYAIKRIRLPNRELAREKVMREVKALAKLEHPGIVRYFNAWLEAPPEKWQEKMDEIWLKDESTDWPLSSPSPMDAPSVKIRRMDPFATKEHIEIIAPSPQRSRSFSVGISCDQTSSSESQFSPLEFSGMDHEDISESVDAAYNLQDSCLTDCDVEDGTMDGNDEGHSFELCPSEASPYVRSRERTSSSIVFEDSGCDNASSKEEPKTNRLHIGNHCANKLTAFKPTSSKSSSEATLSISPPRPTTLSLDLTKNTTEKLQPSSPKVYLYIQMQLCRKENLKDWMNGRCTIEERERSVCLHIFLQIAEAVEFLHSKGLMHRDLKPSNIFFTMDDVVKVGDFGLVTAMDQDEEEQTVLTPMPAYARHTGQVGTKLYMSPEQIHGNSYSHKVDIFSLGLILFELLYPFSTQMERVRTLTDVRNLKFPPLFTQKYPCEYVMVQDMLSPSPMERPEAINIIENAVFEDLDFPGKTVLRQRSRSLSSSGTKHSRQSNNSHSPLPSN

| SMILES | IC50 (PERK) | IC50 [1] |
| --- | --- | --- |
| Nc1ncc(-c2ccc(NC(=O)C(O)c3cc(F)cc(F)c3)cc2Cl)nc1C(=O)NC1COC1 (stereo not drawn) [Example 169, 3-amino-6-(2-chloro-4-(2-(3,5-difluorophenyl)-2-hydroxyacetamido)phenyl)-N-(oxetan-3-yl)pyrazine-2-carboxamide] | 0.001 to 0.025 µM | 1 to 25 nM |
| Cc1cc(NC(=O)C(O)c2cc(F)cc(F)c2)ccc1-c1ccc(N)nc1 (stereo not drawn) [Example 170, N-(4-(6-aminopyridin-3-yl)-3-methylphenyl)-2-(3,5-difluorophenyl)-2-hydroxyacetamide] | 2 to 3 µM | 51 to 100 nM |
| Cc1cc(NC(=O)C(O)c2cc(F)cc(F)c2)ccc1-c1ccc(N)nc1 (stereo not drawn) [Example 171, N-(4-(6-aminopyridin-3-yl)-3-methylphenyl)-2-(3,5-difluorophenyl)-2-hydroxyacetamide] | > 5 µM | 251 to 500 nM |
| CNc1ccc(-c2ccc(NC(=O)C(O)c3cc(F)cc(F)c3)cc2C)cn1 (stereo not drawn) [Example 172, 2-(3,5-difluorophenyl)-2-hydroxy-N-(3-methyl-4-(6-(methylamino)pyridin-3-yl)phenyl) acetamide] | 1 to 2 µM | 51 to 100 nM |
| CNc1ccc(-c2ccc(NC(=O)C(O)c3cc(F)cc(F)c3)cc2C)cn1 (stereo not drawn) [Example 173, 2-(3,5-difluorophenyl)-2-hydroxy-N-(3-methyl-4-(6-(methylamino)pyridin-3-yl)phenyl)acetamide] | > 5 µM | 101 to 250 nM |
| CNc1ncc(-c2ccc(NC(=O)C(O)c3cc(F)cc(F)c3)cc2C)cc1C(=O)NC(C)C (stereo not drawn) [Example 174, 5-(4-(2-(3,5-difluorophenyl)-2-hydroxyacetamido)-2-methylphenyl)-N-isopropyl-2-(methylamino) nicotinamide] | 4 to 5 µM | 101 to 250 nM |
| CNc1ncc(-c2ccc(NC(=O)C(O)c3cc(F)cc(F)c3)cc2C)cc1C(=O)NC(C)C (stereo not drawn) [Example 175, 5-(4-(2-(3,5-difluorophenyl)-2-hydroxyacetamido)-2-methylphenyl)-N-isopropyl-2-(methylamino) nicotinamide] | > 5 µM | 1000 to 2000 nM |
| Cc1cc(NC(=O)C(O)c2cc(F)cc(F)c2)ccc1-c1cnc(C)c(C(=O)NC(C)C)c1 (stereo not drawn) [Example 176, 5-(4-(2-(3,5-difluorophenyl)-2-hydroxyacetamido)-2-methylphenyl)-N-isopropyl-2-methylnicotinamide] | 0.501 to 1 µM | 51 to 100 nM |
| Cc1cc(NC(=O)C(O)c2cc(F)cc(F)c2)ccc1-c1cnc(C)c(C(=O)NC(C)C)c1 (stereo not drawn) [Example 177, 5-(4-(2-(3,5-difluorophenyl)-2-hydroxyacetamido)-2-methylphenyl)-N-isopropyl-2-methylnicotinamide] | 0.251 to 0.5 µM | 26 to 50 nM |
| Cc1cc(NC(=O)C(O)c2cc(F)cc(F)c2)ccc1-c1cncc(C(=O)NC(C)C)c1 (stereo not drawn) [Example 178, 5-(4-(2-(3,5-difluorophenyl)-2-hydroxyacetamido)-2-methylphenyl)-N-isopropylnicotinamide] | 0.101 to 0.25 µM | 26 to 50 nM |
| Cc1cc(NC(=O)C(O)c2cc(F)cc(F)c2)ccc1-c1cncc(C(=O)NC(C)C)c1 (stereo not drawn) [Example 179, 5-(4-(2-(3,5-difluorophenyl)-2-hydroxyacetamido)-2-methylphenyl)-N-isopropylnicotinamide] | 0.501 to 1 µM | 101 to 250 nM |
| Cc1ccc(-c2ccc(NC(=O)C(O)c3cc(F)cc(F)c3)cc2C)cn1 (stereo not drawn) [Example 180, 2-(3,5-difluorophenyl)-2-hydroxy-N-(3-methyl-4-(6-methylpyridin-3-yl)phenyl)acetamide] | > 5 µM | 1000 to 2000 nM |
| Cc1ccc(-c2ccc(NC(=O)C(O)c3cc(F)cc(F)c3)cc2C)cn1 (stereo not drawn) [Example 181, 2-(3,5-difluorophenyl)-2-hydroxy-N-(3-methyl-4-(6-methylpyridin-3-yl)phenyl)acetamide] | > 5 µM | > 5000 nM |
| Cc1cc(N(O)C(=O)C(O)c2cc(F)cc(F)c2)ccc1-c1cnc(N)c(C(=O)NC(C)C)c1 (stereo not drawn) [Example 182, 2-amino-5-(4-(2-(3,5-difluorophenyl)-N,2-dihydroxyacetamido)-2-methylphenyl)-N-isopropylnicotinamide] | 2 to 3 µM | 251 to 500 nM |
| Cc1cc(NC(=O)C(F)(F)c2ccccc2)ccc1-c1cnc(N)c(C(=O)NC(C)C)c1 [Example 183, 2-amino-5-(4-(2,2-difluoro-2-phenylacetamido)-2-methylphenyl)-N-isopropylnicotinamide] | 2 to 3 µM | 101 to 250 nM |
| Cc1cc(NC(=O)C(=O)c2cc(F)cc(F)c2)ccc1-c1cnc(N)c(C(=O)NC(C)C)c1 [Example 184, 2-amino-5-(4-(2-(3,5-difluorophenyl)-2-oxoacetamido)-2-methylphenyl)-N-isopropyl nicotinamide] | 0.101 to 0.25 µM | 251 to 500 nM |
| Cc1cccc(CC(=O)Nc2ccc(-c3cnc(N)c(C(=O)NC(C)C)c3)c(C)c2)n1 [Example 185, 2-amino-N-isopropyl-5-(2-methyl-4-(2-(6-methylpyridin-2-yl)acetamido)phenyl)nicotinamide] | 0.251 to 0.5 µM | 1 to 25 nM |

Now from value to molecule:

| IC50 (PERK) | IC50 [1] | SMILES |
| --- | --- | --- |
| 0.101 to 0.25 µM | 51 to 100 nM | Cc1cc(NC(=O)Cc2cc(F)cc(F)c2)ccc1-c1cnc(N)c(C(=O)NC(C)C)c1 [Example 186, 2-amino-5-(4-(2-(3,5-difluorophenyl)acetamido)-2-methylphenyl)-N-isopropylnicotinamide] |
| 0.501 to 1 µM | 51 to 100 nM | Cc1cc(NC(=O)Cc2ccccc2)ccc1-c1cnc(N)c(C(=O)NC(C)C)c1 [Example 187, 2-amino-N-isopropyl-5-(2-methyl-4-(2-phenylacetamido)phenyl)nicotinamide] |
| 2 to 3 µM | 251 to 500 nM | Cc1cc(NC(=O)CCc2ccccc2)ccc1-c1cnc(N)c(C(=O)NC(C)C)c1 [Example 188, 2-amino-N-isopropyl-5-(2-methyl-4-(3-phenylpropanamido)phenyl) nicotinamide] |
| 0.501 to 1 µM | 101 to 250 nM | Cc1cc(NC(=O)Cc2ccccc2F)ccc1-c1cnc(N)c(C(=O)NC(C)C)c1 [Example 189, 2-amino-5-(4-(2-(2-fluorophenyl)acetamido)-2-methylphenyl)-N-isopropylnicotinamide] |
| 0.501 to 1 µM | 51 to 100 nM | Cc1cc(NC(=O)Cc2cccc(F)c2)ccc1-c1cnc(N)c(C(=O)NC(C)C)c1 [Example 190, 2-amino-5-(4-(2-(3-fluorophenyl)acetamido)-2-methylphenyl)-N-isopropylnicotinamide] |
| 1 to 2 µM | 51 to 100 nM | Cc1cc(NC(=O)Cc2ccc(F)cc2)ccc1-c1cnc(N)c(C(=O)NC(C)C)c1 [Example 191, 2-amino-5-(4-(2-(4-fluorophenyl)acetamido)-2-methylphenyl)-N-isopropylnicotinamide] |
| 2 to 3 µM | 101 to 250 nM | COc1ccccc1CC(=O)Nc1ccc(-c2cnc(N)c(C(=O)NC(C)C)c2)c(C)c1 [Example 192, 2-amino-N-isopropyl-5-(4-(2-(2-methoxyphenyl)acetamido)-2-methylphenyl) nicotinamide] |
| 0.501 to 1 µM | 51 to 100 nM | COc1cccc(CC(=O)Nc2ccc(-c3cnc(N)c(C(=O)NC(C)C)c3)c(C)c2)c1 [Example 193, 2-amino-N-isopropyl-5-(4-(2-(3-methoxyphenyl)acetamido)-2-methylphenyl) nicotinamide] |
| 2 to 3 µM | 501 to 1000 nM | COc1ccc(CC(=O)Nc2ccc(-c3cnc(N)c(C(=O)NC(C)C)c3)c(C)c2)cc1 [Example 194, 2-amino-N-isopropyl-5-(4-(2-(4-methoxyphenyl)acetamido)-2-methylphenyl) nicotinamide] |
| 1 to 2 µM | 101 to 250 nM | Cc1ccc(CC(=O)Nc2ccc(-c3cnc(N)c(C(=O)NC(C)C)c3)c(C)c2)cc1 [Example 197, 2-amino-N-isopropyl-5-(2-methyl-4-(2-(p-tolyl)acetamido)phenyl)nicotinamide] |
| 0.501 to 1 µM | 26 to 50 nM | Cc1cc(NC(=O)Cc2ccccc2Cl)ccc1-c1cnc(N)c(C(=O)NC(C)C)c1 [Example 198, 2-amino-5-(4-(2-(2-chlorophenyl)acetamido)-2-methylphenyl)-N-isopropylnicotinamide] |
| 0.101 to 0.25 µM | 26 to 50 nM | Cc1cc(NC(=O)Cc2cccc(Cl)c2)ccc1-c1cnc(N)c(C(=O)NC(C)C)c1 [Example 199, 2-amino-5-(4-(2-(3-chlorophenyl)acetamido)-2-methylphenyl)-N-isopropylnicotinamide] |
| 0.501 to 1 µM | 501 to 1000 nM | Cc1cc(NC(=O)Cc2ccc(Cl)cc2)ccc1-c1cnc(N)c(C(=O)NC(C)C)c1 [Example 200, 2-amino-5-(4-(2-(4-chlorophenyl)acetamido)-2-methylphenyl)-N-isopropylnicotinamide] |
| 0.501 to 1 µM | 51 to 100 nM | Cc1cc(NC(=O)Cc2ccccc2C(F)(F)F)ccc1-c1cnc(N)c(C(=O)NC(C)C)c1 [Example 201, 2-amino-N-isopropyl-5-(2-methyl-4-(2-(2-(trifluoromethyl)phenyl)acetamido)phenyl)nicotinamide] |
| 0.101 to 0.25 µM | 51 to 100 nM | Cc1cc(NC(=O)Cc2cccc(C(F)(F)F)c2)ccc1-c1cnc(N)c(C(=O)NC(C)C)c1 [Example 202, 2-amino-N-isopropyl-5-(2-methyl-4-(2-(3-(trifluoromethyl)phenyl)acetamido)phenyl)nicotinamide] |
| 1 to 2 µM | 2000 to 3000 nM | Cc1cc(NC(=O)Cc2ccc(C(F)(F)F)cc2)ccc1-c1cnc(N)c(C(=O)NC(C)C)c1 [Example 203, 2-amino-N-isopropyl-5-(2-methyl-4-(2-(4-(trifluoromethyl)phenyl)acetamido)phenyl) nicotinamide] |
